Results as given in US7388006B2, “Non-steroidal progesting” (Bayer Schering Pharma AG, priority 2002, dated 2008).

Experiments:
androgen receptor (AR) = target: T1, androgen receptor (AR) (Homo sapiens, UniProt P10275); assay: Binding affinity for the androgen receptor
T1 sequence (P10275 1-920): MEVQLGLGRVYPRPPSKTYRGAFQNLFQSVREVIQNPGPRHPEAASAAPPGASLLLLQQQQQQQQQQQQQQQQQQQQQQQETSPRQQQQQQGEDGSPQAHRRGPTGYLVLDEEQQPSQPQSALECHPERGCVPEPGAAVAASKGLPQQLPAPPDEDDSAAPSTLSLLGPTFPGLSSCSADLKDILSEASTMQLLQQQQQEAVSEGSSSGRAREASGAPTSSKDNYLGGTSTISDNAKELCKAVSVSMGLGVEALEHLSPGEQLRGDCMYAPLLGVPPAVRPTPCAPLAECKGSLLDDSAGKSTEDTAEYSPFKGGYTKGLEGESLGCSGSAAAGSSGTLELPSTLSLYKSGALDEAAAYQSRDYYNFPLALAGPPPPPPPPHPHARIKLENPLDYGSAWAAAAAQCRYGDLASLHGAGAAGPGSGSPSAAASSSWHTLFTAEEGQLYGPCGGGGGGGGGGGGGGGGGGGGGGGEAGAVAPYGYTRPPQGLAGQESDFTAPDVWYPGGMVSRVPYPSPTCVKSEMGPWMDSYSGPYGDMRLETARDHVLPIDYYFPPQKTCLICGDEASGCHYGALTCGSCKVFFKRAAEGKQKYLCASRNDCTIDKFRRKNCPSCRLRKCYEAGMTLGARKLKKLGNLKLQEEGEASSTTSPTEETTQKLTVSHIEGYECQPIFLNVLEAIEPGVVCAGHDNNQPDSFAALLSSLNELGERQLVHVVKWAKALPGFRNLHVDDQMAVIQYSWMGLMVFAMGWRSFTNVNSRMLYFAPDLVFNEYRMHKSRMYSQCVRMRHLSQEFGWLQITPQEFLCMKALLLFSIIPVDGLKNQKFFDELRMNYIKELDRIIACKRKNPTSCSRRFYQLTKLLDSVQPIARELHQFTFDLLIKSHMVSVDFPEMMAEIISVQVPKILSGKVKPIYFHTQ

[1] = test system: uterine growth in ovariectomized estradiol-treated rats; assay: Antiuterotropic activity in the rat (uterine weight, epithelial height); assay type: in vivo; settings: for Functional antiestrogenic effect (uterine weight gain, epithelial cell height): 3 days
Text: Compounds with estrogenic activity induce uterine growth, resulting in an increase in uterine weight. They also induce a characteristic change of the appearance of the endometrial epithelium as indicated by an increase in epithelial height. PR modulators counteract estrogenic activity by inhibiting uterine weight gain and epithelial cell proliferation. This effect is sometimes referred to as “functional antiestrogenic” effect.
To test for antiuterotropic activity of the most preferred progestin according to the present invention, i.e., compound ((+)-1), ovariectormized rats are treated for 3 days with 0.3 μg/kg/d estradiol (E2) and in addition with increasing doses of ((+)-1) (cf. FIG. 4). Each test group shown in FIG. 4 consists of 10 rats, with the exception of one group (cf. FIG. 4, bottom diagram, 150 μg/kg of ((+)-1)), indicated by “#”), which consists of nine rats.
Changes in uterine weight, luminal epithelial height and the status of cell proliferation and keratinization of the vaginal smear servs as parameters for estrogenic activity. In combination with ((+)-1), decreases in estrogen-stimulated uterine weight gain and luminal epithelial height are parameters for antiestrogenic activity (cf. FIG. 4).
For the reference group (estradiol (E2)-treated), stimulation of the uterine weight and the luminal epithelial height in comparison to the vehicle control was calculated as follows: […]
In the antiestrogen assay, inhibition of uterine weight or luminal epithelial height in comparison to the effect seen with the reference compound (estradiol) was calculated as follows: […]
For statistical analysis, the 95% confidence interval was calculated using a software which was developed by the Biostatistical Department of Schering AG. The asterisks indicate a significant difference (p<0.05).

[2] = test system: pregnancy in ovariectomized rats; assay: Pregnancy maintenance test in rat; assay type: in vivo; settings: for Maintenance of pregnancy, factor compared to R5020: potency relative to R5020
Text: In rats, castration induces termination of pregnancy. Progestins (combined with estrogens) are capable of maintaining pregnancy in castrated animals. However, the degree of pregnancy maintenance in castrated rats is optimal only in a defined dose range. Therefore, higher as well as lower doses generally induce a weaker effect. Accompanying treatment with defined doses of estrone (E1) increases the pregnancy maintaining effect of progestins.
Pregnant rats (Wistar Han, SPF) of 190 to 220 g (5 to 8 animals per dose) are ovariectomized on day 8 of pregnancy, 2 hours after the first substance administration. From day 8 to day 14, rats are daily treated with test progestin in combination with a standard dose of E1. One day later, animals are killed with carbon dioxide. For each animal, the number of living and dead fetuses is determined according to the heartbeat of the embryos. In case of empty uteri, the number of implantation sites is determined by means of staining with a 10% ammonium sulfide solution.
S.c. (subcutaneous) application: The test progestin is dissolved in benzyl benzoate/castor oil (1+4 v/v), and the daily dose is administered in a volume of 1 ml/kg body weight.
P.o. (peroral) application: The test progestin is suspended in a carrier liquid (85 mg Myrj^R in 100 ml 0.9% w/v NaCl solution), and the daily dose is administered in a volume of 2 ml/kg body weight.
I.p. (intraperitoneal) application: The test progestin is dissolved in propylene glycol and charged in miniature osmotic pumps (type 2001, 1.0 μl/h, 7 days), which are placed in the abdominal cavity of the rat.
The standard dose of estrone is 0.005 mg/kg body weight s.c. and is dissolved in benzyl benzoate/castor oil ([…]).
It is determined the pregnancy maintenance per animal [%], the pregnancy maintenance per dose (median of single values) and the EC50 (dose, at which pregnancy is maintained in 50% of the animals; 100% corresponds to control animals that are not ovariectomized). The results of the test are further discussed below in c).

O=C1OCc2cc(NC(=O)C(O)(CC3(c4cc(C(F)(F)F)ccc4F)CC3)C(F)(F)F)ccc21 (single isomer, unassigned; (+)) [((+)-1), (+)-5-{2-hydroxy-3-[1-(2-fluoro-5-trifluoromethylphenyl)-cyclopropyl]-2-trifluoromethyl-propionylamino}-phthalide]
Binding affinity for the androgen receptor (AR) (androgen receptor (AR)): moderate binding affinity | Functional antiestrogenic effect (uterine weight gain, epithelial cell height) ([1]; 5 μg/kg/d with estradiol): submaximum effect | Functional antiestrogenic effect (uterine weight gain, epithelial cell height) ([1]; 15 μg/kg/d with estradiol): Maximum effect | Functional antiestrogenic effect, in words ([1]; in combination with estradiol, FIG. 4): strong functional antiestrogenic effect | Androgenic activity in the pregnancy maintenance test ([2]; dose 100 times higher than the dose required for maintaining pregnancy): no androgenic activity | Pregnancy-maintaining activity EC50 value ([2]; rat): 12 µg/kg/day | Maintenance of pregnancy, factor compared to R5020 ([2]; rat): eight times as potent | Maintenance of pregnancy, factor compared to R5020 ([2]; rat, listed as ((+)−1)): 8
